From patent publication US20250376483A1, “PRODRUGS OF PAN-KRAS INHIBITORS” (Mirati Therapeutics, Inc., priority 2022, published 2025)

What was measured:
[1] = Whole Blood Stability Assay (mouse whole blood); type: in vitro ADME; conditions: CD-1 mouse blood, EDTA-K2, final conc. 2 μM, 37° C., 0-120 min; for half-life at 2 μM: male, fresh whole blood, read-out: Mouse Whole Blood Stability t1/2
Method: Whole Blood Stability Assay
This Example illustrates that exemplary compounds of the present invention is cleavage in mouse whole blood.
(§1) Test Compounds and Stock Solutions: Stock Conc. 10 mM; Final Conc. 2 μM
(§2) Test Compound and Control Working Solution Preparation:
• Intermediate solution: 5 μL of compound stock solution (10 mM in dimethyl sulfoxide (DMSO)) were diluted with […] of DMSO (intermediate solution concentration: 1 mM, 100% DMSO) • Propantheline bromide (control) intermediate solution: 5 μL of propantheline stock solution (10 mM in ultra-pure water) were diluted with 45 μL of ultra-pure water (intermediate solution concentration: 1 mM) • Working solution 1: 20 μL of test compound intermediate solution (1 mM) were diluted with 180 μL of 45% ACN/H2O (working solution concentration: […], 40.5% ACN, 10% DMSO) • Working solution 2: 20 μL of control intermediate solution (1 mM) were diluted with 180 μL of 45% ACN/H2O (working solution concentration: 100 μM, 40.5% ACN, 10% DMSO) • Species/Matrix: CD-1 Mouse Blood • No. of Individuals: n>3 Male • Anticoagulant Used: EDTA-K2
• The fresh blood was collected on the day of experiment and pre-warmed in a water bath at 37° C. • Using an Apricot automation workstation, 98 μL/well of blank blood were added to all 96-well reaction plates (Blank, T0, T10, T30, T60 and T120). • An Apricot automation workstation was used to add 2 μL/well of working solution (100 μM) to all reaction plates except Blank (T0, T10, T30, T60 and T120). • All reaction plates containing mixtures of compound and blood were incubated at 37° C. in water bath. • The reaction plates were incubated at 37° C., and timer was started. • At the end of incubation, mixed 100 μL water with 100 μL spiked blood samples, then added 800 μL of stop solution (200 ng/mL tolbutamide and 200 ng/mL labetalol in ACN) to precipitate protein. Mixed thoroughly. • Each plate was sealed and shaken for 20 minutes. • After shaking, each plate was centrifuged at 4000 rpm and 4° C. for 20 minutes. • After centrifugation, an Apricot automation workstation was used to transfer 150 μL of supernatant from each reaction plate to its corresponding bioanalysis plate. • Each bioanalysis plate was submitted to LC-MS/MS analysis.
• The % remaining of test compound after incubation in blood was calculated using following equation:
(§3) [formula] • where PAR is the peak area ratio of analyte versus internal standard (IS) • The appointed incubation time points are TO (0 min), Tn (n=0, 10, 30, 60 and 120 min)

[2] = Plasma Stability Assay (human plasma); type: in vitro ADME; conditions: both sexes; pooled human plasma, heparin, final conc. 2 μM, 37° C., 0-120 min; read-out: Human Plasma Stability t1/2
Method: This Example illustrates that exemplary compounds of the present invention is cleavage in human plasma.
as §1, §2
• Test compound intermediate solution: 10 μL of compound stock solution (10 mM in dimethyl sulfoxide (DMSO)) were diluted with 90 μL of DMSO (intermediate solution concentration: 1 mM, 100% DMSO) • Control intermediate solution: 10 μL of control stock solution (10 mM in dimethyl sulfoxide (DMSO)) were diluted with 90 μL of DMSO (intermediate solution concentration: 1 mM, 100% DMSO) • Species/Matrix: Human Plasma • No. of Individuals: 3 Male & 3 Female • Anticoagulant Used: Heparin
• The pooled frozen plasma was thawed in a water bath at 37° C. prior to experiment. Plasma was centrifuged at 4000 rpm for 5 min and the clots were removed if any. • Using an Apricot automation workstation, 98 μL/well of blank plasma were added to all 96-well reaction plates. (Blank, T0, T10, T30, T60 and T120) • An Apricot automation workstation was used to add 2 μL/well of working solution (100 μM) to all reaction plates except Blank. (T0, T10, T30, T60 and T120) • All reaction plates containing mixtures of compound and plasma were incubated at 37° C. in water bath. • The reaction plates were incubated at 37° C., and timer was started. • At the end of incubation, added 500 μL of stop solution (200 ng/mL tolbutamide and 200 ng/mL labetalol in ACN) to precipitate protein. Mixed thoroughly. • Each plate was sealed and shaken for 20 minutes. • After shaking, each plate was centrifuged at 4000 rpm and 4° C. for 20 minutes • After centrifugation, an Apricot automation workstation was used to transfer 50 μL supernatant into 100 μL HPLC water. • Each bioanalysis plate was sealed and shaken for 10 minutes prior to LC-MS/MS analysis Data Analysis • The % remaining of test compound after incubation in blood was calculated using following equation:
as §3

Question: Which half-life at 2 μM [1] does the source give for `CCc1c(F)ccc2cc(OC(=O)OC(C)(C)C)cc(N3CCc4c(nc(OC[C@@]56CCCN5C[C@H](F)C6)nc4N4CCC[C@]5(C4)NC(=O)NC5=O)C3)c12` [Example 46, tert-butyl (4-(4-((R)-2,4-dioxo-1,3,7-triazaspiro[4.5]decan-7-yl)-2-(((2R,7aS)-2-fluorotetrahydro-1H-pyrrolizin-7a(5H)-yl)methoxy)-5,8-dihydropyrido[3,4-d]pyrimidin-7(6H)-yl)-5-ethyl-6-fluoronaphthalen-2-yl) carbonate] here?
Answer: Its half-life at 2 μM is 13 min.

Question: What about the half-life at 2 μM [2] of the same compound?
Answer: The half-life at 2 μM was 116 min.

Question: With `CCc1c(F)ccc2cc(OC(=O)N3CCCCC3)cc(N3CCc4c(nc(OC[C@@]56CCCN5C/C(=C\F)C6)nc4N4CCC[C@]5(C4)NC(=O)NC5=O)C3)c12` [Example 73, 4-(4-(CAN-2,4-dioxo-1,3,7-triazaspiro[4.5]decan-7-yl)-2-(((S,Z)-2-(fluoromethylene)tetrahydro-1H-pyrrolizin-7a(5H)-yl)methoxy)-5,8-dihydropyrido[3,4-d]pyrimidin-7(6H)-yl)-5-ethyl-6-fluoronaphthalen-2-yl piperidine-1-carboxylate] as the compound, how does the half-life at 2 μM [1] read?
Answer: The half-life at 2 μM was 147 min.

Question: Which results are given for `CCc1c(F)ccc2cc(OC(=O)C3CCCC3)cc(-c3ncc4c(N5C[C@@H]6C[C@H](C5)[C@H](O)C6)nc(OC[C@@]56CCCN5C[C@H](F)C6)nc4c3F)c12` [Example 17, 5-ethyl-6-fluoro-4-(8-fluoro-2-(((2R,7aS)-2-fluorotetrahydro-1H-pyrrolizin-7a(5H)-yl)methoxy)-4-((1R,5R,6R)-6-hydroxy-3-azabicyclo[3.2.1]octan-3-yl)pyrido[4,3-d]pyrimidin-7-yl)naphthalen-2-yl cyclopentanecarboxylate]?
Answer: Mouse Whole Blood Stability t1/2 [1]: 1 min; half-life at 2 μM [2]: 41 min

Question: With `CCc1c(F)ccc2cc(OC(C)=O)cc(-c3ncc4c(N5C[C@@H]6C[C@H](C5)[C@H](O)C6)nc(OC[C@@]56CCCN5C[C@H](F)C6)nc4c3F)c12` [Example 1, 5-ethyl-6-fluoro-4-(8-fluoro-2-(((2R,7aS)-2-fluorotetrahydro-1H-pyrrolizin-7a(5H)-yl)methoxy)-4-((1R,5R,6R)-6-hydroxy-3-azabicyclo[3.2.1]octan-3-yl)pyrido[4,3-d]pyrimidin-7-yl)naphthalen-2-yl acetate] as the compound, how does the half-life at 2 μM [1] read?
Answer: The half-life at 2 μM was 3 min.

Question: What about the half-life at 2 μM [2] of the same compound?
Answer: The half-life at 2 μM was 23 min.

Question: For `CCc1c(F)ccc2cc(OC(=O)N3CCCC[C@H]3C)cc(N3CCc4c(nc(OC[C@@]56CCCN5C[C@H](F)C6)nc4N4CCC[C@]5(C4)NC(=O)NC5=O)C3)c12` [Example 57, 4-(4-((R)-2,4-dioxo-1,3,7-triazaspiro[4.5]decan-7-yl)-2-(((2R,7aS)-2-fluorotetrahydro-1H-pyrrolizin-7a(5H)-yl)methoxy)-5,8-dihydropyrido[3,4-d]pyrimidin-7(6H)-yl)-5-ethyl-6-fluoronaphthalen-2-yl (R)-2-methylpiperidine-1-carboxylate], which half-life at 2 μM [1] is on record?
Answer: Its half-life at 2 μM is greater than 289 min.

Question: What about the half-life at 2 μM [2] of the same compound?
Answer: Its half-life at 2 μM is greater than 289 min.

Question: Which “Mouse Whole Blood Stability t1/2” value [1] does the source give for `CCc1c(F)ccc2cc(OC(=O)C(C)C)cc(N3CCc4c(nc(OC[C@@]56CCCN5C[C@H](F)C6)nc4N4CCC[C@]5(C4)NC(=O)NC5=O)C3)c12` [Example 34, 4-(4-((R)-2,4-dioxo-1,3,7-triazaspiro[4.5]decan-7-yl)-2-(((2R,7aS)-2-fluorotetrahydro-1H-pyrrolizin-7a(5H)-yl)methoxy)-5,8-dihydropyrido[3,4-d]pyrimidin-7(6H)-yl)-5-ethyl-6-fluoronaphthalen-2-yl isobutyrate] here?
Answer: Its value is 1 min.

Question: And the half-life at 2 μM [2]?
Answer: Its half-life at 2 μM is 210 min.

Question: For `CCCC(=O)Oc1cc(N2CCc3c(nc(OC[C@@]45CCCN4C[C@H](F)C5)nc3N3CCC[C@]4(C3)NC(=O)NC4=O)C2)c2c(CC)c(F)ccc2c1` [Example 33, 4-(4-((R)-2,4-dioxo-1,3,7-triazaspiro[4.5]decan-7-yl)-2-(((2R,7aS)-2-fluorotetrahydro-1H-pyrrolizin-7a(5H)-yl)methoxy)-5,8-dihydropyrido[3,4-d]pyrimidin-7(6H)-yl)-5-ethyl-6-fluoronaphthalen-2-yl butyrate], which half-life at 2 μM [1] is on record?
Answer: Its half-life at 2 μM is less than 5 min.

Question: And the half-life at 2 μM [2]?
Answer: Its half-life at 2 μM is 62 min.

Question: For `CCc1c(F)ccc2cc(OC(=O)C(C)(C)C)cc(N3CCc4c(nc(OC[C@@]56CCCN5C[C@H](F)C6)nc4N4CCC[C@]5(C4)NC(=O)NC5=O)C3)c12` [Example 39, 4-(4-((R)-2,4-dioxo-1,3,7-triazaspiro[4.5]decan-7-yl)-2-(((2R,7aS)-2-fluorotetrahydro-1H-pyrrolizin-7a(5H)-yl)methoxy)-5,8-dihydropyrido[3,4-d]pyrimidin-7(6H)-yl)-5-ethyl-6-fluoronaphthalen-2-yl pivalate], which “Mouse Whole Blood Stability t1/2” value [1] is on record?
Answer: Its value is 1 min.

Question: What about the half-life at 2 μM [2] of the same compound?
Answer: Its half-life at 2 μM is greater than 289 min.

Question: Which half-life at 2 μM [1] does the source give for `CCc1c(F)ccc2cc(OC(=O)N3CCCCCCC3)cc(N3CCc4c(nc(OC[C@@]56CCCN5C[C@H](F)C6)nc4N4CCC[C@]5(C4)NC(=O)NC5=O)C3)c12` [Example 54, 4-(4-((R)-2,4-dioxo-1,3,7-triazaspiro[4.5]decan-7-yl)-2-(((2R,7aS)-2-fluorotetrahydro-1H-pyrrolizin-7a(5H)-yl)methoxy)-5,8-dihydropyrido[3,4-d]pyrimidin-7(6H)-yl)-5-ethyl-6-fluoronaphthalen-2-yl azocane-1-carboxylate] here?
Answer: The half-life at 2 μM was greater than 289 min.

Question: And the half-life at 2 μM [2]?
Answer: The half-life at 2 μM was greater than 289 min.

Question: For `CCc1c(F)ccc2cc(OC(C)=O)cc(N3CCc4c(nc(OCC56CCCN5C/C(=C\F)C6)nc4N4CCC[C@]5(C4)NC(=O)NC5=O)C3)c12` (stereo partly drawn) [Example 72, 4-(4-(CAN-2,4-dioxo-1,3,7-triazaspiro[4.5]decan-7-yl)-2-(((S,Z)-2-(fluoromethylene)tetrahydro-1H-pyrrolizin-7a(5H)-yl)methoxy)-5,8-dihydropyrido[3,4-d]pyrimidin-7(6H)-yl)-5-ethyl-6-fluoronaphthalen-2-yl acetate], which half-life at 2 μM [1] is on record?
Answer: Its half-life at 2 μM is 2 min.

Question: With `CCc1c(F)ccc2cc(OC(=O)N(CCOC)CCOC)cc(N3CCc4c(nc(OC[C@@]56CCCN5C[C@H](F)C6)nc4N4CCC[C@]5(C4)NC(=O)NC5=O)C3)c12` [Example 65, 4-(4-((R)-2,4-dioxo-1,3,7-triazaspiro[4.5]decan-7-yl)-2-(((2R,7aS)-2-fluorotetrahydro-1H-pyrrolizin-7a(5H)-yl)methoxy)-5,8-dihydropyrido[3,4-d]pyrimidin-7(6H)-yl)-5-ethyl-6-fluoronaphthalen-2-yl bis(2-methoxyethyl)carbamate] as the compound, how does the half-life at 2 μM [2] read?
Answer: The half-life at 2 μM was greater than 289 min.

Question: Which half-life at 2 μM [1] does the source give for `CCc1c(F)ccc2cc(OC(=O)C(C)C)cc(N3CCc4c(nc(OCC56CCCN5C/C(=C\F)C6)nc4N4CCC[C@]5(C4)NC(=O)NC5=O)C3)c12` (stereo partly drawn) [Example 76, 4-(4-(CAN-2,4-dioxo-1,3,7-triazaspiro[4.5]decan-7-yl)-2-(((S,Z)-2-(fluoromethylene)tetrahydro-1H-pyrrolizin-7a(5H)-yl)methoxy)-5,8-dihydropyrido[3,4-d]pyrimidin-7(6H)-yl)-5-ethyl-6-fluoronaphthalen-2-yl isobutyrate] here?
Answer: The half-life at 2 μM was 4 min.
